This is an account of results in patent US12390449B2, “Substituted 2-aminobenzimidazoles analogs as antibiofilm agents” (priority 2018, dated 2025).

The subject of data set [1] is S. typhimurium ATCC 14028. Put plainly: Growth curves, planktonic bacterial growth. The format is cell-based. To be noted: at their IC50 values; hydrochloride. On the procedure:
Growth Curves: S. typhimurium was grown overnight in TSB, and this culture was used to inoculate fresh 1:20 TSB (OD600=0.08). Inoculated medium was aliquoted (3 mL) into culture tubes, and compound was added, with untreated inoculated medium serving as the control. Tubes were incubated at 30° C. with shaking. Samples were taken at 2, 4, 6, 8, and 24 h time points, serially diluted in fresh 1:20 TSB, and plated on nutrient agar. Plates were incubated at 37° C. overnight in stationary conditions, and the number of colonies was enumerated.

Data set [2] relates to Salmonella typhimurium ATCC14028 Biofilms. Put plainly: Inhibitory effect of test compounds on Salmonella typhimurium ATCC14028 biofilms (crystal violet, 96-well). In kind it is cell-based. How it is done: Procedure to Determine the Inhibitory Effect of Test Compounds on Salmonella typhimurium ATCC14028 Biofilms: […] Stock solutions of predetermined concentrations of the test compounds were then made in 1 mL of bacterial culture. […] Sample plates were then incubated for 24 h at 30° C. After incubation, the medium was discarded from the wells and the plates were washed thoroughly with water. Plates were then stained with 110 μL of 0.1% solution of crystal violet (CV) and then incubated at ambient temperature for 30 min. Plates were washed with water again and the remaining stain was solubilized with 200 μL of 95% ethanol. A sample of 125 μL of solubilized CV stain from each well was transferred to the corresponding wells of a polystyrene microtiter dish. Biofilm inhibition was quantitated by measuring the OD540 of each well in which a negative control lane wherein no biofilm was formed served as a background and was subtracted out.

Data set [3] has as its system Galleria mellonella larvae. Put plainly: Toxicity assay in Galleria mellonella larvae. The format is in vivo. To be noted: 400 mg kg^−1. How it is done:
FIGS. 5A-5B show representative toxicity data obtained for a representative disclosed compound. […] Briefly, S. typhimurium (JSG210) was grown in the presence of a representative disclosed compound, compound M4, present at a concentration of 10 μM for 24 hours, followed by determination of viability measured by drip plating at T=0, 2, 5, 15, 20, 24 hours. 3 biological replicates were tested. […] Briefly, a representative disclosed compound, compound M4, was injected into last left proleg of Galleria mellonella larvae at 400 mg/kg and assessed at 24-hour intervals over 5 days. The study was repeated 3 times using 10 larvae per experiment group.
Toxicity was measured by drip plating and counting cfu/mL.

[4] abbreviates: Salmonella enterica, 24 h, read-out: IC50 (μM), inhibition of biofilm formation, S. typhimurium ATCC14028, 24 h at 30° C., crystal violet OD540.
[5] abbreviates: read-out: IC50 (μM), inhibition of biofilm formation, S. typhimurium ATCC14028, 24 h at 30° C., crystal violet OD540, hydrochloride.

“Also recorded” adds a separate entry of the source. Structures can show the parent of a compound that is named as a salt. Where two headings read alike, the source gives them in different places. Where only a bound is given, the exact number is not on record here.

In the case of `CCCCCOc1ccc(C(=O)Nc2ccc3c(c2)nc(N)n3CCCc2ccccc2)cc1.Cl` [Compound 10a, N-(2-Amino-1-(3-phenylpropyl)-1H-benzo[d]imidazol-5-yl)-4-pentoxybenzamide hydrochloride], the “toxicity to planktonic bacterial growth” value in data set [1] is reported as “no toxicity; also recorded: non-toxic”. In data set [2] (setting [4]), the IC50 – broadly, the concentration at which inhibition is half-maximal – amounted to 5.22 ± 0.11 µM.
In the case of `Cl.Nc1nc2cc(NC(=O)c3ccc(Cl)c(Cl)c3)ccc2n1CCCc1ccccc1` [Compound 10d, N-(2-Amino-1-(3-phenylpropyl)-1H-benzo[d]imidazol-5-yl)-3,4-dichlorobenzamide hydrochloride], in data set [3], the “toxicity to G. mellonella” value is given as “no toxicity”. Also, the IC50 was < 7 µM in data set [2] (setting [4]); 6.3 ± 1.29 µM in data set [2] (setting [5]); 6.3 ± 1.29 µM in data set [2] (read-out: IC50 (μM), inhibition of biofilm formation, S. typhimurium ATCC14028, 24 h at 30° C., crystal violet OD540, listed as 15d, hydrochloride).
For `Cl.Nc1nc2cc(NC(=O)c3cc(Cl)cc(Cl)c3)ccc2n1CCCc1ccccc1` [Compound 10e, N-(2-Amino-1-(3-phenylpropyl)-1H-benzo[d]imidazol-5-yl)-3,5-dichlorobenzamide hydrochloride], the “toxicity to G. mellonella” value in data set [3] is on record as “no toxicity”. In addition, the IC50 in data set [2] (setting [4]) is 10 to 15 µM; in data set [2] (setting [5]), 13.3 ± 0.49 µM.
Take `CCCCCCCCc1ccc(C(=O)Nc2ccc3c(c2)nc(N)n3CCCc2ccccc2)cc1` [Compound 10r, N-(2-Amino-1-(3-phenylpropyl)-1H-benzo[d]imidazol-5-yl)-4-octylbenzamide hydrochloride]: the IC50 in data set [2] (setting [4]) is > 40 µM; in data set [2] (setting [5]), > 50 µM.
As to `CCCCCCCCCCCC(=O)Nc1ccc2c(c1)nc(N)n2CCCc1ccccc1` [Compound 10s, N-(2-Amino-1-(3-phenylpropyl)-1H-benzo[d]imidazol-5-yhdodecanamide hydrochloride], in data set [2] (setting [5]), the IC50 is > 50 µM.
Same read-out and setting: then `CCCCCCCCCCCCCC(=O)Nc1ccc2c(c1)nc(N)n2CCCc1ccccc1` [Compound 10t, N-(2-Amino-1-(3-phenylpropyl)-1H-benzo[d]imidazol-5-yhtetradecanamide hydrochloride], with > 50 µM.
With `Nc1nc2cc(C(=O)Nc3ccc(Cl)c(Cl)c3)ccc2n1CCCc1ccccc1` [Compound 15, 2-Amino-N-(3,4-dichlorophenyl)-1-(3-phenylpropyl)-1H-benzo[d]imidazole-5-carboxamide hydrochloride], the IC50 in data set [2] (setting [4]) came to 12.6 ± 1.8 µM.
Turning to `Cl.Nc1nc2cc(NC(=O)Nc3ccc(Cl)c(Cl)c3)ccc2n1CCCc1ccccc1` [Compound 20, 1-(2-Amino-1-(3-phenylpropyl)-1H-benzo[d]imidazol-5-yl)-3-(3,4-dichlorophenyl)urea hydrochloride], in data set [1], the “toxicity to planktonic bacterial growth” value is reported as “no toxicity; also recorded: non-toxic”. In addition, in data set [2] (setting [4]), the IC50 was 7.69 ± 0.25 µM.
